Test results from US8569265B2, “Deuterated analogs of (4S)-4-ethyl-4-hydroxy-11-[2- (trimethylsilyl)ethyl]-1H-pyrano[3′, 4′:6,7] indolizino [1,2-b]quinoline-3,14(4H, 12H)-dione and methods of use thereof” (BioNumerik Pharmaceuticals, Inc., priority 2011, dated 2013).
Like-named read-outs stand apart in the source and are kept apart here.

Tests used:
[1] = test system: wild-type human ovarian cancer cells (A2780/WT); assay: Sulforhodamine B (SRB) cytotoxicity assay, A2780/WT; assay type: cell-based; details: for IC50: Homo sapiens, A2780/WT, 2 hour drug treatments; for IC50 values in words (inhibition of cell growth): wild-type (A2780/WT) ovarian cancer cells
Source text: (§1) The sulforhodamine B (SRB) assay was used to assess cytotoxicity and absorbance at 570 nm (A570) in order to calculate the percentage of cell control (or percent cell survival) for wild-type human ovarian cancer cells (A2780/WT) and doxorubicin-resistant human ovarian cancer cells (A2780/DX5) treated with BNP1350, BNP10120 (a di-deuterated analog of BNP1350) and BNP10121 (a tetra-deuterated analog of BNP1350).
(§2) Roswell Park Memorial Institute (RPMI 1640) medium, fetal bovine serum (FBS), and L-glutamine were purchased from Gibco BRL. Drugs were dissolved in sterile dimethylsulfoxide (DMSO), from American Type Culture Collection (ATCC) for stock solutions (2.5 to 5.0 mM). Subsequent dilutions were made using cell culture medium (prior to adding the drug to cells). SRB was purchased from Sigma and dissolved in 1.0 percent acetic acid. Trichloroacetic acid was purchased from VWR International. BNP1350, BNP10120 (a di-deuterated analog of BNP1350) and BNP10121 (a tetra-deuterated analog of BNP1350) were synthesized and purified by BioNumerik Pharmaceuticals, Inc.
(§3) Cells were manipulated in a Class IIA/B3 Biological Safety Cabinet (Forma Scientific) and maintained at 37° C. in a humidified atmosphere containing 5% CO2 in a water-jacketed cell culture incubator (Forma Scientific). Cells were counted using a Coulter-Z1 counter (Beckman-Coulter). Following drug treatment, plates were washed using a Biomek 2000 station (Beckman) and, following exposure to SRB dye, plates were washed using an automated plate washer (Model EL404, Bio-Tek Instruments). Percentage of control was correlated to A570 values and determined using a Model EL800 plate reader (Bio-Tek Instruments).
(§4) Wild-type human ovarian cancer cells (A2780/WT) and doxorubicin-resistant human ovarian cancer cells (A2780/DX5) were cultured in RPMI 1640 medium supplemented with 10% fetal bovine serum and 2 mM L-glutamine, and grown in a 37° C. incubator with 5% CO2. Population doubling times for the two cell lines used in this study encompassed a total of five cell doublings corresponding to approximately 5 days for A2780/WT and A2780/DX5 cells. Both cell lines were maintained as monolayered cultures in T-25 or T-75 flasks and then seeded to microtiter plate wells for experiments described herein.
(§5) In brief, cells were seeded (500 cells/well in 100 μL total volume) into 96-well microtiter plates and allowed to attach for 24 hours prior to treatment with BNP1350, BNP10120 or BNP10121 for 2 hours. The aforementioned compounds were dissolved in DMSO for use in cytotoxicity experiments where inhibition of cell growth was measured using the SRB assay.
(§6) Following this 2 hour drug treatment, the BNP1350, BNP10120 and BNP10121 were removed, cells were washed with drug-free media (200 μL) and then drug-free media (200 μL) was added to the cells and cells were allowed to continue growing at 37° C. with 5% CO2 before the SRB assay was performed (total experiment time from time of seeding was 5 days, during which time a total of 5 cell doublings had occurred).
(§7) Prior to SRB assays, cell viability was monitored by evaluation of microtiter plate wells. Dead cells detach and float while living cells remain attached to the bottom of the cell well.
(§8) The sulforhodamine B (SRB) cytotoxicity assay (see, Skehan P, et al., New colorimetric cytotoxicity assay for anticancer-drug screening. J. Natl. Cancer Inst. 82:1107-1112 (1990)) was used to determine the cytotoxic effects of BNP1350, BNP10120 or BNP10121 on cell growth in vitro. Briefly, after the medium was aspirated from individual plate wells, trichloroacetic acid (100 μL of 10.0% solution) was added to each well, and the plates were incubated at 4° C. for at least 1 hour. The plates were washed five-times with water using an automated microplate washer (Model EL 404, Bio-Tek Instruments), SRB solution (100 μL of 0.4 grams SRB dissolved in 100 mL 1.0 percent acetic acid) was added, and plates remained at room temperature for 15 minutes. […]

[2] = test system: doxorubicin-resistant human ovarian cancer cells (A2780/DX5); assay: Sulforhodamine B (SRB) cytotoxicity assay, A2780/DX5; assay type: cell-based; details: for IC50: Homo sapiens, A2780/DX5, 2 hour drug treatments; for IC50 values in words (inhibition of cell growth): doxorubicin resistant (A2780/DX5) ovarian cancer cells
Source text: as §1, §2, §3, §4, §5, §6, §7, §8

[3] = clinical trial; cited from earlier work
[4] = test system: malignant melanoma and carcinoma cells (colon carcinoma, glioblastoma, and small lung cell cancer cells); details: cited from earlier work
[5] = test system: PHA-stimulated lymphocytes and normal glial cells; details: 90% D2O; cited from earlier work
[6] = average of Test 1 and Test 2, read-out: IC50 Average

Row | SMILES | IC50 [1, 6] | IC50 ([1]; read-out: IC50 Test 1) | IC50 ([1]; read-out: IC50 Test 2) | IC50 values in words (inhibition of cell growth) [1] | IC50 [2, 6] | IC50 ([2]; read-out: IC50 Test 1) | IC50 ([2]; read-out: IC50 Test 2) | IC50 values in words (inhibition of cell growth) [2] | rate of metabolism relative to Effexor [3] | time after which pharmacologically-effective levels of the drug were maintained [3] | cells killed ([4]; 90% D2O, malignant melanoma and carcinoma cells) | viable fraction of malignant cells ([4]; 9 days of treatment with 90% D2O) | cells killed [5]
1 | [2H]C([2H])(c1c2c(nc3ccccc13)-c1cc3c(c(=O)n1C2)COC(=O)[C@]3(O)CC)C([2H])([2H])[Si](C)(C)C [BNP10121, (S)-4-Ethyl-4-hydroxy-11-[1,1,2,2-tetradeutero-2-(trimethylsilyl)ethyl]-1H-pyrano[3′,4′:6,7]indolizino[1,2-b]quinoline-3,14(4H,12H)-dione] | 6.1 nM | 6.1 nM | 6 nM | nanomolar | 11.7 nM | 12 nM | 11.3 nM | nanomolar | – | – | – | – | –
2 | [2H]C([2H])([2H])Oc1ccc(C(CN(C([2H])([2H])[2H])C([2H])([2H])[2H])C2(O)CCCCC2)cc1 (centres unmarked) [SD-254] | – | – | – | – | – | – | – | – | half as fast | 24 hours | – | – | –
3 | CC[C@@]1(O)C(=O)OCc2c1cc1n(c2=O)Cc2c-1nc1ccccc1c2CC[Si](C)(C)C [BNP1350, (4S)-4-Ethyl-4-hydroxy-11-[2-(trimethylsilyl)ethyl]-1H-pyrano[3′,4′:6,7]indolizino[1,2-b]quinoline-3,14(4H,12H)-dione, reference compound] | 1.9 nM | 1.9 nM | 1.8 nM | nanomolar | 7.3 nM | 7.7 nM | 6.9 nM | nanomolar | – | – | – | – | –
4 | [2H]O[2H] [D2O] | – | – | – | – | – | – | – | – | – | – | 70% | about 0.1% | 5%
5 | [2H]C1([2H])c2c(nc3ccccc3c2CC[Si](C)(C)C)-c2cc3c(c(=O)n21)COC(=O)[C@]3(O)CC [BNP10120, (4S)-12,12-Dideutero-4-ethyl-4-hydroxy-11-[2-(trimethylsilyl)ethyl]-1H-pyrano[3′,4′:6,7]indolizino[1,2-b]quinoline-3,14(4H,12H)-dione] | 2.6 nM | 3.5 nM | 1.6 nM | nanomolar | 8.5 nM | 9.9 nM | 7.1 nM | nanomolar | – | – | – | – | –
